Assay results from PMC6405930, “Conservation of the Amyloid Interactome Across Diverse Fibrillar Structures” (Scientific Reports, 2019).

What was measured:
Ab1 fibrils [1] = test system: T1, Ab1 fibrils; assay: Determination of the binding capacity (dye depletion from supernatant); set-up: species or system human; conditions: 2 nmol dye (20 µM) with 10 μg fibril material, one hour
T1 construct: Synthetic amyloid β peptide 1–40 was purchased from Caslo Aps (Lyngby, Denmark); purchased Caslo Aps (Lyngby, Denmark); host or cells: synthetic peptide
Procedure: (§1) Control samples (without fibril material) were prepared similarly. Fibrils and fibril-bound ligand were pelleted by centrifugation (17,000 g, 30 min) and the supernatant (90 μL) was transferred to a 96 well half-area plate (Corning 3881).

Ab2 fibrils [2] = test system: T2, Ab2 fibrils; assay: as above; set-up: species or system human; conditions: 2 nmol dye (20 µM) with 10 μg fibril material, one hour
T2 construct: Two structurally distinct fibrils of the Aβ(1–40) peptide associated with AD
Procedure: as §1

C-36 fibrils [3] = target: T3, C-36 fibrils (Homo sapiens, UniProt P01009); assay: as above; conditions: 2 nmol dye (20 µM) with 10 μg fibril material, one hour
T3 construct: the 36 residue C-terminal fragment of α1-antitrypsin (C-36)
Procedure: as §1

glucagon fibrils [4] = target: T4, glucagon fibrils (Homo sapiens, UniProt P01275); assay: as above; conditions: 2 nmol dye (20 µM) with 10 μg fibril material, one hour
T4 construct: fibrils of the peptide hormone glucagon
Procedure: as §1

αSN fibrils [5] = target: T5, αSN fibrils (Homo sapiens, UniProt P37840); assay: as above; conditions: 2 nmol dye (20 µM) with 10 μg fibril material, one hour
Procedure: as §1

Ab1 fibrils [6] = test system: T1, Ab1 fibrils; assay: Fibril incubation with plasma, quantitative MS/MS of bound proteins; assay type: binding, human; conditions: 50:1 w/w plasma protein:fibril
Procedure: (§2) Plasma and CSF solutions were centrifuged (40,000 g, 20 min) to remove any aggregates. The protein concentration was determined using 280 nm absorbance assuming 1 Abs = 1 mg/mL. Samples with fibril material (20 μg), plasma (500 μg) or CSF (40 μg) proteins were prepared in 200 μL PBS buffer with 5 mM EDTA. Control samples (without fibril material) were prepared similarly. All samples were incubated at room temperature for one hour under gentle agitation. Fibrils and fibril-bound proteins were pelleted by centrifugation at 17,000 g for 30 minutes. The supernatant (175 μL) was removed and the aggregate was re-suspended in 175 μL PBS and pelleted again before further preparation for gel analysis and spin-filter assisted digest for quantitative MS/MS.
(§3) The fibril-protein pellets were transferred to spin-filters (0.22 μm), washed twice in PBS (100 μL) and once in 1 M NaCl (100 μL). The fibrils and fibril-bound proteins were dissolved by one-hour incubation in 100 μL 6 M guanidinium chloride followed by elution from the spin-filter. The eluted proteins were loaded onto a 3 kDa MWCO filter unit for filter-assisted unfolding, reduction, alkylation, and trypsin digestion. In brief, samples were washed twice in 8 M urea, once in 8 M urea with 50 mM DTT, once in 8 M urea with 50 mM iodoaceteamide, and twice in 8 M Urea. The filter units were dried by centrifugation (14,000 g in 30 minutes) after every addition. Trypsin digestion was carried out with 0.25 μg sequencing grade trypsin from Sigma Aldrich in 50 mM ammonium bicarbonate overnight at 37 °C. The tryptic peptides were collected by centrifugation, acidified with TFA (0.1%) and micro-purified using POROS R2 column material (Applied Biosystems) packed in P200 pipette tips (Sarstedt).
(§4) LC-MS/MS analyses were performed on an EASY-nLC II system (Thermo Fisher Scientific) connected to a TripleTOF 5600+ mass spectrometer (Sciex) equipped with a NanoSpray III source (Sciex) and operated under Analyst TF 1.6.0 control.
(§5) The micro-purified tryptic peptides were dissolved in 0.1% formic acid, injected and trapped on an in-house packed trap column (2 cm × 100 μm I.D) with RP ReproSil-Pur C18-AQ 3 μm resin (Dr. Maisch GmbH). Peptides were eluted from the trap column and separated on a 15 cm analytical column (75 μm i.d.) packed in-house in a pulled emitter with RP ReproSil-Pur C18-AQ 3 μm resin (Dr. Maisch GmbH). Elution from the analytical column was performed with a linear gradient from 5% to 35% phase B (90% acetonitrile with 0.1% formic acid) over 20 min for protein identification and 50 min for quantitative analysis, respectively.
(§6) All samples were analysed three times, yielding nine MS/MS experiments for each fibril for both plasma and CSF. For the area-based extracted ion chromatogram (XIC) quantification, the acquisition method was set up as an information-dependent acquisition (IDA) experiment collecting up to 25 MS/MS spectra in each 1.6 sec cycle using an exclusion window of 6 sec.
(§7) XIC quantification was based on the average ion intensity of the three most abundant peptides for each protein. Only proteins quantified in at least four out of nine MS/MS experiments per fibril were included in the quantification. The total ion scores were visualized after grouping the proteins according to function (Figure S11).
(§8) For each MS/MS experiment, the ion intensities of the individual proteins were normalized to the total ion intensity of that MS/MS experiment to achieve a relative protein composition. The contribution of each protein was averaged over all nine MS/MS experiments (Tables 1 and 2).

Ab2 fibrils [7] = test system: T2, Ab2 fibrils; assay: as above; assay type: binding, human; conditions: 50:1 w/w plasma protein:fibril
Procedure: as §2, with “Samples with fibril material (20 μg), plasma (500 μg) or CSF (40 μg) proteins were prepared in 200 μL PBS buffer with 5 mM EDTA.” left out
as §3, §4, §5, §6, §7, §8

glucagon fibrils [8] = target: T4, glucagon fibrils; assay: as above; assay type: binding; conditions: 50:1 w/w plasma protein:fibril
Procedure: as §2, with “Samples with fibril material (20 μg), plasma (500 μg) or CSF (40 μg) proteins were prepared in 200 μL PBS buffer with 5 mM EDTA.” left out
as §3, §4, §5, §6, §7, §8

C-36 fibrils [9] = target: T3, C-36 fibrils; assay: as above; assay type: binding; conditions: 50:1 w/w plasma protein:fibril
Procedure: as §2, with “Samples with fibril material (20 μg), plasma (500 μg) or CSF (40 μg) proteins were prepared in 200 μL PBS buffer with 5 mM EDTA.” left out
as §3, §4, §5, §6, §7, §8

αSN fibrils [10] = target: T5, αSN fibrils; assay: as above; assay type: binding; conditions: 50:1 w/w plasma protein:fibril
Procedure: as §2, with “Samples with fibril material (20 μg), plasma (500 μg) or CSF (40 μg) proteins were prepared in 200 μL PBS buffer with 5 mM EDTA.” left out
as §3, §4, §5, §6, §7, §8

FAS4-AD aggregates = test system: T6, FAS4-AD aggregates; assay: as above; assay type: binding, human; set-up: key to Identification status of plasma protein bound: FAS4-AD: *: Identified, but not quantified; —: Not identified in any of the samples; conditions: symbol cells
T6 construct: aggregates of a mutated version of the FAS1-4 domain of TGFBIp
Procedure: as §2, with “Samples with fibril material (20 μg), plasma (500 μg) or CSF (40 μg) proteins were prepared in 200 μL PBS buffer with 5 mM EDTA.” left out
as §3, §4, §5, §6, §7, §8

[11] = test system: fibril systems (Ab1, Ab2, glucagon, αSN and C-36); assay: Fibril incubation with plasma, quantitative MS/MS, span over the fibril systems; assay type: binding, human
Procedure: as §2
The fibril-protein pellets were transferred to spin-filters (0.22 μm), washed twice in PBS (100 μL) and once in 1 M NaCl (100 μL). The fibrils and fibril-bound proteins were dissolved by one-hour incubation in 100 μL 6 M guanidinium chloride followed by elution from the spin-filter. […]
The micro-purified tryptic peptides were dissolved in 0.1% formic acid, injected and trapped on an in-house packed trap column (2 cm × 100 μm I.D) with RP ReproSil-Pur C18-AQ 3 μm resin (Dr. Maisch GmbH). […] Elution from the analytical column was performed with a linear gradient from 5% to 35% phase B (90% acetonitrile with 0.1% formic acid) over 20 min for protein identification and 50 min for quantitative analysis, respectively.
All samples were analysed three times, yielding nine MS/MS experiments for each fibril for both plasma and CSF. For the area-based extracted ion chromatogram (XIC) quantification, the acquisition method was set up as an information-dependent acquisition (IDA) experiment collecting up to 25 MS/MS spectra in each 1.6 sec cycle using an exclusion window of 6 sec. […]
XIC quantification was based on the average ion intensity of the three most abundant peptides for each protein. Only proteins quantified in at least four out of nine MS/MS experiments per fibril were included in the quantification. […]

T3 sequence (P01009 383-418 limits assumed): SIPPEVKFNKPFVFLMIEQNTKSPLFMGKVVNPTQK
T4 sequence (P01275 53-81 limits assumed): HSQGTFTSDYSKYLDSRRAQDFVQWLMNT

Row | Compound | Ligand bound (binding capacity) (Ab1 fibrils [1]) [nmol/mg fibril] | Ligand bound (binding capacity) (Ab2 fibrils [2]) [nmol/mg fibril] | Ligand bound (binding capacity) (C-36 fibrils [3]) [nmol/mg fibril] | Ligand bound (binding capacity) (glucagon fibrils [4]) [nmol/mg fibril] | Ligand bound (binding capacity) (αSN fibrils [5]) [nmol/mg fibril] | Relative composition of plasma proteins bound: Ab1 (Ab1 fibrils [6]) | Relative composition of plasma proteins bound: Ab2 (Ab2 fibrils [7]) | Relative composition of plasma proteins bound: Glucagon (glucagon fibrils [8]) | Relative composition of plasma proteins bound: C-36 (C-36 fibrils [9]) | Relative composition of plasma proteins bound: αSN (αSN fibrils [10]) | Identification status of plasma protein bound: FAS4-AD (FAS4-AD aggregates) | contribution to the fibril interactomes [11] [%]
1 | O=C(O)c1cc(/C=C/c2ccc(/C=C/c3ccc(O)c(C(=O)O)c3)c(F)c2)ccc1O [FSB, (E,E)-1-fluoro-2,5-bis-(3-hydroxycarbonyl-4-hydroxy)styrylbenzene] | 45 | 54 | 197 | 128 | 123 | – | – | – | – | – | – | –
2 | Apolipoprotein B-100: plasma protein bound to fibrils | – | – | – | – | – | 0.6 ± 0.1 % of total protein | 0.5 ± 0.2 % of total protein | 0.4 ± 0.0 % of total protein | 0.1 ± 0.0 % of total protein | 0.2 ± 0.1 % of total protein | * | 0.4
